Laboratory results published in ChEMBL document CHEMBL1240439, “Synthesis and docking studies of novel benzopyran-2-ones with anticancer activity” (2010).
Calls of active or inactive are those of the source.

What was measured:
Format in all cases: functional
[1] = tested on: A549; assay: Cytotoxicity against human A549 cells assessed as cell growth at 10 uM after 48 hrs by sulforhodamine B assay
[2] = tested on: BT-549; assay: Cytotoxicity against human BT549 cells assessed as cell growth at 10 uM after 48 hrs by sulforhodamine B assay
[3] = tested on: 786-0; assay: Cytotoxicity against human 786-0 cells assessed as cell growth at 10 uM after 48 hrs by sulforhodamine B assay
[4] = tested on: NCI-H522; assay: Cytotoxicity against human NCI-H522 cells assessed as cell growth at 10 uM after 48 hrs by sulforhodamine B assay
[5] = tested on: KM12; assay: Cytotoxicity against human KM12 cells assessed as cell growth at 10 uM after 48 hrs by sulforhodamine B assay
[6] = tested on: CCRF-CEM; assay: Cytotoxicity against human CCRF-CEM cells assessed as cell growth at 10 uM after 48 hrs by sulforhodamine B assay
[7] = tested on: SF-295; assay: Cytotoxicity against human SF295 cells assessed as cell growth at 10 uM after 48 hrs by sulforhodamine B assay
[8] = tested on: UACC-257; assay: Cytotoxicity against human UACC257 cells assessed as cell growth at 10 uM after 48 hrs by sulforhodamine B assay
[9] = tested on: OVCAR-5; assay: Cytotoxicity against human OVCAR5 cells assessed as cell growth at 10 uM after 48 hrs by sulforhodamine B assay
[10] = tested on: EKVX; assay: Cytotoxicity against human EKVX cells assessed as cell growth at 10 uM after 48 hrs by sulforhodamine B assay
[11] = tested on: HL-60(TB); assay: Cytotoxicity against human HL-60(TB) cells assessed as cell growth at 10 uM after 48 hrs by sulforhodamine B assay
[12] = tested on: OVCAR-4; assay: Cytotoxicity against human OVCAR4 cells assessed as cell growth at 10 uM after 48 hrs by sulforhodamine B assay
[13] = tested on: NCI-H322M; assay: Cytotoxicity against human NCI-H322M cells assessed as cell growth at 10 uM after 48 hrs by sulforhodamine B assay
[14] = tested on: UO-31; assay: Cytotoxicity against human UO31 cells assessed as cell growth at 10 uM after 48 hrs by sulforhodamine B assay
[15] = tested on: OVCAR-8; assay: Cytotoxicity against human OVCAR8 cells assessed as cell growth at 10 uM after 48 hrs by sulforhodamine B assay
[16] = tested on: SK-OV-3; assay: Cytotoxicity against human SKOV3 cells assessed as cell growth at 10 uM after 48 hrs by sulforhodamine B assay
[17] = tested on: TK-10; assay: Cytotoxicity against human TK10 cells assessed as cell growth at 10 uM after 48 hrs by sulforhodamine B assay
[18] = tested on: SF-268; assay: Cytotoxicity against human SF268 cells assessed as cell growth at 10 uM after 48 hrs by sulforhodamine B assay
[19] = tested on: MCF7; assay: Cytotoxicity against human MCF7 cells assessed as cell growth at 10 uM after 48 hrs by sulforhodamine B assay
[20] = tested on: HCC 2998; assay: Cytotoxicity against human HCC2998 cells assessed as cell growth at 10 uM after 48 hrs by sulforhodamine B assay
[21] = tested on: HCT-15; assay: Cytotoxicity against human HCT15 cells assessed as cell growth at 10 uM after 48 hrs by sulforhodamine B assay
[22] = tested on: SN12C; assay: Cytotoxicity against human SN12C cells assessed as cell growth at 10 uM after 48 hrs by sulforhodamine B assay
[23] = tested on: K562; assay: Cytotoxicity against human K562 cells assessed as cell growth at 10 uM after 48 hrs by sulforhodamine B assay
[24] = tested on: SNB-75; assay: Cytotoxicity against human SNB75 cells assessed as cell growth at 10 uM after 48 hrs by sulforhodamine B assay
[25] = tested on: SR; assay: Cytotoxicity against human SR cells assessed as cell growth at 10 uM after 48 hrs by sulforhodamine B assay
[26] = tested on: Hs-578T; assay: Cytotoxicity against human Hs 578T cells assessed as cell growth at 10 uM after 48 hrs by sulforhodamine B assay
[27] = tested on: MDA-MB-231; assay: Cytotoxicity against human MDA-MB-231 cells assessed as cell growth at 10 uM after 48 hrs by sulforhodamine B assay
[28] = tested on: ACHN; assay: Cytotoxicity against human ACHN cells assessed as cell growth at 10 uM after 48 hrs by sulforhodamine B assay
[29] = tested on: LOX IMVI; assay: Cytotoxicity against human LOXIMVI cells assessed as cell growth at 10 uM after 48 hrs by sulforhodamine B assay
[30] = tested on: MDA-MB-468; assay: Cytotoxicity against human MDA-MB-468 cells assessed as cell growth at 10 uM after 48 hrs by sulforhodamine B assay
[31] = tested on: UACC-62; assay: Cytotoxicity against human UACC62 cells assessed as cell growth at 10 uM after 48 hrs by sulforhodamine B assay
[32] = tested on: T47D; assay: Cytotoxicity against human T47D cells assessed as cell growth at 10 uM after 48 hrs by sulforhodamine B assay
[33] = tested on: COLO 205; assay: Cytotoxicity against human COLO205 cells assessed as cell growth at 10 uM after 48 hrs by sulforhodamine B assay
[34] = tested on: SW-620; assay: Cytotoxicity against human SW620 cells assessed as cell growth at 10 uM after 48 hrs by sulforhodamine B assay
[35] = tested on: U-251; assay: Cytotoxicity against human U251 cells assessed as cell growth at 10 uM after 48 hrs by sulforhodamine B assay
[36] = tested on: Malme-3M; assay: Cytotoxicity against human MALME-3M cells assessed as cell growth at 10 uM after 48 hrs by sulforhodamine B assay
[37] = tested on: HT-29; assay: Cytotoxicity against human HT-29 cells assessed as cell growth at 10 uM after 48 hrs by sulforhodamine B assay
[38] = tested on: NCI-H226; assay: Cytotoxicity against human NCI-H226 cells assessed as cell growth at 10 uM after 48 hrs by sulforhodamine B assay
[39] = tested on: PC-3; assay: Cytotoxicity against human PC3 cells assessed as cell growth at 10 uM after 48 hrs by sulforhodamine B assay
[40] = tested on: OVCAR-3; assay: Cytotoxicity against human OVCAR-3 cells assessed as cell growth at 10 uM after 48 hrs by sulforhodamine B assay
[41] = tested on: HCT-116; assay: Cytotoxicity against human HCT116 cells assessed as cell growth at 10 uM after 48 hrs by sulforhodamine B assay
[42] = tested on: SNB-19; assay: Cytotoxicity against human SNB19 cells assessed as cell growth at 10 uM after 48 hrs by sulforhodamine B assay
[43] = tested on: SK-MEL-2; assay: Cytotoxicity against human SK-MEL-2 cells assessed as cell growth at 10 uM after 48 hrs by sulforhodamine B assay
[44] = tested on: DU-145; assay: Cytotoxicity against human DU145 cells assessed as cell growth at 10 uM after 48 hrs by sulforhodamine B assay
[45] = tested on: NCI-H23; assay: Cytotoxicity against human NCI-H23 cells assessed as cell growth at 10 uM after 48 hrs by sulforhodamine B assay
[46] = tested on: HOP-92; assay: Cytotoxicity against human HOP92 cells assessed as cell growth at 10 uM after 48 hrs by sulforhodamine B assay
[47] = tested on: M14; assay: Cytotoxicity against human M14 cells assessed as cell growth at 10 uM after 48 hrs by sulforhodamine B assay
[48] = tested on: NCI-H460; assay: Cytotoxicity against human NCI-H460 cells assessed as cell growth at 10 uM after 48 hrs by sulforhodamine B assay
[49] = tested on: MOLT-4; assay: Cytotoxicity against human MOLT4 cells assessed as cell growth at 10 uM after 48 hrs by sulforhodamine B assay
[50] = tested on: SK-MEL-5; assay: Cytotoxicity against human SK-MEL-5 cells assessed as cell growth at 10 uM after 48 hrs by sulforhodamine B assay
[51] = tested on: HOP-62; assay: Cytotoxicity against human HOP62 cells assessed as cell growth at 10 uM after 48 hrs by sulforhodamine B assay
[52] = tested on: SF-539; assay: Cytotoxicity against human SF539 cells assessed as cell growth at 10 uM after 48 hrs by sulforhodamine B assay
[53] = tested on: SK-MEL-28; assay: Cytotoxicity against human SK-MEL-28 cells assessed as cell growth at 10 uM after 48 hrs by sulforhodamine B assay
[54] = tested on: IGROV-1; assay: Cytotoxicity against human IGROV1 cells assessed as cell growth at 10 uM after 48 hrs by sulforhodamine B assay
[55] = tested on: MDA-MB-435; assay: Cytotoxicity against human MDA-MB-435 cells assessed as cell growth at 10 uM after 48 hrs by sulforhodamine B assay
[56] = tested on: A498; assay: Cytotoxicity against human A498 cells assessed as cell growth at 10 uM after 48 hrs by sulforhodamine B assay
[57] = tested on: RXF 393; assay: Cytotoxicity against human RXF393 cells assessed as cell growth at 10 uM after 48 hrs by sulforhodamine B assay
[58] = tested on: RPMI-8226; assay: Cytotoxicity against human RPMI8226 cells assessed as cell growth at 10 uM after 48 hrs by sulforhodamine B assay

Measured: Activity

Cc1cc(C)n(C(=O)COc2ccc3c(-c4ccccc4)cc(=O)oc3c2C)n1
inactive: [1] | [2] | [3] | [4] | [5] | [6] | [7] | [8] | [9] | [10] | [11] | [12] | [13] | [14] | [15] | [16] | [17] | [18] | [19] | [20] | [21] | [22] | [23] | [24] | [25] | [26] | [27] | [28] | [29] | [30] | [31] | [32] | [33] | [34] | [35] | [36] | [37] | [38] | [39] | [40] | [41] | [42] | [43] | [44] | [45] | [46] | [47] | [48] | [49] | [50] | [51] | [52] | [53] | [54] | [55] | [56] | [57] | [58]

CCCc1cc(=O)oc2c(C)c(OCC(=O)n3nc(C)cc3C)ccc12
inactive: [1] | [2] | [3] | [4] | [5] | [6] | [7] | [8] | [9] | [10] | [11] | [12] | [13] | [14] | [15] | [16] | [17] | [18] | [19] | [20] | [21] | [22] | [23] | [24] | [25] | [26] | [27] | [28] | [29] | [30] | [31] | [32] | [33] | [34] | [35] | [36] | [37] | [38] | [39] | [40] | [41] | [42] | [43] | [44] | [45] | [46] | [47] | [48] | [49] | [50] | [51] | [52] | [53] | [54] | [55] | [56] | [57] | [58]
